Experimental data: patent US5620958A, “Bradykinin antagonists” (Coretech, Inc., priority 1994, dated 1997)
Peptide text beside a SMILES is read from it.

Legend:
NK1 receptor = molecular target: T1, NK1 receptor (Cavia porcellus, UniProt P30547); experiment: guinea pig ileum assay of NK1 receptor activity against substance P; format: cell-based; conditions: Table O
T1 construct: a standard guinea pig ileum assay of NK1 receptor activity; from tissue; host or cells: guinea pig ileum
Source text: In order to illustrate the potential of blocking two different receptor populations with a single compound a consensus NK1 receptor antagonist (DArg-DPro-Lys-Pro-Gln-Asn-DPhe-Phe-DTrp-Leu-Nle) was synthesized. […] Once the activity of this reference ligand was established, a series of lysine containing monomers formed by the systematic substitution of a lysine residue sequentially through the reference peptide was synthesized.

BK2 receptor = molecular target: T2, BK2 receptor (Rattus norvegicus, UniProt P25023); experiment: cell-based
T2 sequence (P25023 1-396): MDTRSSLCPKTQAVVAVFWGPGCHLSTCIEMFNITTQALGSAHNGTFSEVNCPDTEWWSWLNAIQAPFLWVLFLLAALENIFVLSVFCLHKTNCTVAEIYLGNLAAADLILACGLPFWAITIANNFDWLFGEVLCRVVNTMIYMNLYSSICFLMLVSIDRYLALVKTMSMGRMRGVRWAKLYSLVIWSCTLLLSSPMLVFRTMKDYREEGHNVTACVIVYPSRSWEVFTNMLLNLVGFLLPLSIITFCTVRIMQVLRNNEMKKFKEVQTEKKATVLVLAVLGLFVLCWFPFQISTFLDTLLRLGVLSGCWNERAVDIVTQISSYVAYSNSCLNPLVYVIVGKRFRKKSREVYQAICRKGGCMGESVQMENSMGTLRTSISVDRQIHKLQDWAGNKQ

T1 sequence (P30547 whole entry): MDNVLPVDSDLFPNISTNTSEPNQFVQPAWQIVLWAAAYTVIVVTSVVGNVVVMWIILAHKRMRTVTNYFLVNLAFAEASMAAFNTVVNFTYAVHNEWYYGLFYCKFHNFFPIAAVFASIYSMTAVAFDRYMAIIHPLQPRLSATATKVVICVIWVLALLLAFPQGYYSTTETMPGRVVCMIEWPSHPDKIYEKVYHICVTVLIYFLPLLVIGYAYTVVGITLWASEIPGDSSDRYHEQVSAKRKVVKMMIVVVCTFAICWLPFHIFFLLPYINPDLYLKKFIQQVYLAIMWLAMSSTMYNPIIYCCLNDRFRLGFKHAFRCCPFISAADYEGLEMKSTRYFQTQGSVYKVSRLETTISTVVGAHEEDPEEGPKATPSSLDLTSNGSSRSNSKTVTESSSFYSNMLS

## CCCC[C@H](NC(=O)[C@H](CC(C)C)NC(=O)[C@@H](Cc1c[nH]c2ccccc12)NC(=O)[C@H](Cc1ccccc1)NC(=O)[C@@H](Cc1ccccc1)NC(=O)[C@H](CCCCNC(=O)CCCCCN1C(=O)CC(SC[C@H](NC(=O)[C@H](Cc2ccccc2)NC(=O)CNC(=O)[C@@H]2C[C@@H](O)CN2C(=O)[C@@H]2CCCN2C(=O)[C@H](CCCNC(=N)N)NC(=O)[C@H](N)CCCNC(=N)N)C(=O)N[C@H](Cc2ccccc2)C(=O)N[C@@H](CC(C)C)C(=O)N[C@@H](CCCNC(=N)N)C(=O)O)C1=O)NC(=O)[C@H](CCC(N)=O)NC(=O)[C@@H]1CCCN1C(=O)[C@H](CCCCN)NC(=O)[C@H]1CCCN1C(=O)[C@H](N)CCCNC(=N)N)C(N)=O (stereo partly drawn) [CP-0395] (HELM PEPTIDE1{[dR].[dP].K.P.Q.K.[dF].F.[dW].L.[Nle].[am]}|PEPTIDE2{[dR].R.P.[Hyp].G.F.C.[dF].L.R}|CHEM1{[O=C1CC([*:2])C(=O)N1CCCCCC(=O)[*:1]]}$PEPTIDE1,CHEM1,6:R3-1:R1|PEPTIDE2,CHEM1,7:R3-1:R2$$$V2.0)
NK1 receptor; read-out: NK1 : GPI pA2 (± s.e.m.) (converted)
  Kb: 501 nM
BK2 receptor
  Kb: 50.1 nM

## CCCC[C@H](NC(=O)[C@H](CC(C)C)NC(=O)[C@@H](Cc1c[nH]c2ccccc12)NC(=O)[C@H](Cc1ccccc1)NC(=O)[C@H](CCCCNC(=O)CCCCCN1C(=O)CC(SC[C@H](NC(=O)[C@H](Cc2ccccc2)NC(=O)CNC(=O)[C@@H]2C[C@@H](O)CN2C(=O)[C@@H]2CCCN2C(=O)[C@H](CCCNC(=N)N)NC(=O)[C@H](N)CCCNC(=N)N)C(=O)N[C@H](Cc2ccccc2)C(=O)N[C@@H](CC(C)C)C(=O)N[C@@H](CCCNC(=N)N)C(=O)O)C1=O)NC(=O)[C@H](CC(N)=O)NC(=O)[C@H](CCC(N)=O)NC(=O)[C@@H]1CCCN1C(=O)[C@H](CCCCN)NC(=O)[C@H]1CCCN1C(=O)[C@H](N)CCCNC(=N)N)C(N)=O (stereo partly drawn) [CP-0396] (HELM PEPTIDE1{[dR].[dP].K.P.Q.N.K.F.[dW].L.[Nle].[am]}|PEPTIDE2{[dR].R.P.[Hyp].G.F.C.[dF].L.R}|CHEM1{[O=C1CC([*:2])C(=O)N1CCCCCC(=O)[*:1]]}$PEPTIDE1,CHEM1,7:R3-1:R1|PEPTIDE2,CHEM1,7:R3-1:R2$$$V2.0)
NK1 receptor
  NK1 : GPI pA2 (± s.e.m.): Inactive
BK2 receptor
  Kb: 10 nM

## CCCC[C@H](NC(=O)[C@H](CC(C)C)NC(=O)[C@@H](Cc1c[nH]c2ccccc12)NC(=O)[C@H](CCCCNC(=O)CCCCCN1C(=O)CC(SC[C@H](NC(=O)[C@H](Cc2ccccc2)NC(=O)CNC(=O)[C@@H]2C[C@@H](O)CN2C(=O)[C@@H]2CCCN2C(=O)[C@H](CCCNC(=N)N)NC(=O)[C@H](N)CCCNC(=N)N)C(=O)N[C@H](Cc2ccccc2)C(=O)N[C@@H](CC(C)C)C(=O)N[C@@H](CCCNC(=N)N)C(=O)O)C1=O)NC(=O)[C@@H](Cc1ccccc1)NC(=O)[C@H](CC(N)=O)NC(=O)[C@H](CCC(N)=O)NC(=O)[C@@H]1CCCN1C(=O)[C@H](CCCCN)NC(=O)[C@H]1CCCN1C(=O)[C@H](N)CCCNC(=N)N)C(N)=O (stereo partly drawn) [CP-0397] (HELM PEPTIDE1{[dR].[dP].K.P.Q.N.[dF].K.[dW].L.[Nle].[am]}|PEPTIDE2{[dR].R.P.[Hyp].G.F.C.[dF].L.R}|CHEM1{[O=C1CC([*:2])C(=O)N1CCCCCC(=O)[*:1]]}$PEPTIDE1,CHEM1,8:R3-1:R1|PEPTIDE2,CHEM1,7:R3-1:R2$$$V2.0)
NK1 receptor
  NK1 : GPI pA2 (± s.e.m.): Inactive
BK2 receptor
  Kb: 20 nM
